Read-outs that look alike come from different tables or passages of the source.

For assay [1], the system named is Staphylococcus hominis DSM 20328. Put plainly: Determination of the Minimum Inhibitory Concentration (MIC value) in microtitre plates, Staphylococcus hominis. The class given is cell-based. The conditions noted are these: for MIC: Staphylococcus hominis, DSM20328, 48 h, read-out: MIC [μg/ml] SH. On the procedure:
(§1) Determination of the Minimum Inhibitory Concentration (MIC Value) in Microtitre Plates
Casein-soybean flour-peptone broth for preparation of pre-cultures of test bacteria and yeast.
Staphylococcus hominis DSM 20328 […]
(§2) The test substances are pre-dissolved in dimethyl sulfoxide (DMSO) and tested in a dilution series of 1:2.
(§3) The bacteria are cultured overnight in CASO broth and washed off using 10 ml of 0.85% sodium chloride solution (+0.1% Triton X-100).
(§4) All the test organisms are adjusted to an organism count of 1-5×10^6 CFU/ml using 0.85% sodium chloride solution.
(§5) The test substances are pre-pipetted into microtitre plates in amounts of 8 μl per well.
(§6) Pre-diluted test organism suspensions are diluted 1:100 in CASO broth.
(§7) The test batches are incubated for 48 hours at 37° C.
(§8) After incubation, the growth is determined on the basis of the turbidity of the test batches (optical density) at 620 nm in a microplate reader.
(§9) The minimum inhibitory concentration (MIC value) is the concentration of substance at which there is found (compared to the growth of the control) an appreciable inhibition of growth (≦20% growth) of the test organisms.
(§10) One microtitre plate is used for each test organism and substance concentration.
(§11) All the substances are tested in duplicate.

Assay [2] concerns Escherichia coli NCTC 8196. Put plainly: Determination of the Minimum Inhibitory Concentration (MIC value) in microtitre plates, Escherichia coli. The class given is cell-based. The following applies: for MIC: Escherichia coli, NCTC8196, 48 h, read-out: MIC [μg/ml] EC. On the procedure: as §1
Casein-soybean flour-peptone broth for preparation of pre-cultures of test bacteria and yeast. […]
Escherichia coli NCTC 8196
as §2, §3, §4, §5, §6, §7, §8, §9, §10, §11

Where [3] appears, read: Staphylococcus hominis DSM 20328, CASO broth, 48 hours at 37° C., MIC = ≦20% growth (optical density at 620 nm).
Where [4] appears, read: Escherichia coli NCTC 8196, CASO broth, 48 hours at 37° C., MIC = ≦20% growth (optical density at 620 nm).

On to `CCCCN(C)Cc1ccc(OCCC)c(OC)c1` [Compound of formula (57)], for which the MIC in assay [1] (setting [3]) was above 120 µg/mL; in assay [2] (setting [4]) it was 120 µg/mL.

On to `CCCOc1ccc(CN2CCCCCC2)cc1OC` [Compound of formula (58)], for which the MIC is 120 µg/mL in assay [1] (setting [3]) and above 120 µg/mL in assay [2] (setting [4]).

Turning to `CCCOc1ccc(CN(C(C)C)C(C)C)cc1OC` [Compound of formula (59)], the MIC in assay [1] (setting [3]) and in assay [2] (setting [4]) was above 120 µg/mL in each case.

Turning to `CCCOc1ccc(CN2CCN(C)CC2)cc1OC` [Compound of formula (60)], the MIC in assay [1] and in assay [2] was above 120 µg/mL each time.

As to `CCCOc1ccc(CN(CC)CC)cc1OC` [Compound of formula (61)], the MIC in assay [1] (setting [3]) and in assay [2] (setting [4]) was above 120 µg/mL each time.

As to `CCCOc1ccc(CN2CCN(C(C)=O)CC2)cc1OC` [Compound of formula (62)], the MIC in assay [1] (setting [3]) and in assay [2] (setting [4]) was above 120 µg/mL throughout.

As to `CCCOc1ccc(CN(C)Cc2ccccc2)cc1OC` [Compound of formula (63)], the MIC in assay [1] (setting [3]) and in assay [2] (setting [4]) was above 120 µg/mL each time.

As to `CCCCCCN(C)Cc1ccc(OCCC)c(OC)c1` [Compound of formula (64)], the MIC in assay [1] (setting [3]) and in assay [2] (setting [4]) was above 120 µg/mL in each case.

`CCCOc1ccc(CN2CCN(CC)CC2)cc1OC` [Compound of formula (65)]: the MIC in assay [1] and in assay [2] was above 120 µg/mL throughout.

As for `CCCOc1ccc(CN2CCCC2)cc1OC` [Compound of formula (66)], the MIC in assay [1] (setting [3]) and in assay [2] (setting [4]) was above 120 µg/mL each time.

Take `CCCCCCCCCCCCN(C)Cc1ccc(OCCC)c(OC)c1` [Compound of formula (67)]: the values for the MIC in assay [1] (setting [3]) and in assay [2] (setting [4]) were 60 µg/mL and above 120 µg/mL, respectively.

Consider `CCCOc1ccc(CN(C)C)cc1OC` [Compound of formula (68)], for which the MIC in assay [1] (setting [3]) and in assay [2] (setting [4]) was above 120 µg/mL each time.

Turning to `CCCOc1ccc(CN2CCNCC2)cc1OC` [Compound of formula (69)], the MIC in assay [1] and in assay [2] was above 120 µg/mL in each case.

On to `CCCOc1ccc(CN2CCCCC2)cc1OC` [Compound of formula (70)], for which the MIC in assay [1] (setting [3]) and in assay [2] (setting [4]) was above 120 µg/mL in each case.

In the case of `CCCCCCCCCCCCOc1ccc(CN(C)CCc2ccccn2)cc1` [Compound of formula (71)], the MIC in assay [1] (setting [3]) and in assay [2] (setting [4]) was above 120 µg/mL throughout.

As for `CCCCCCCCCCCCOc1ccc(CN2CCOCC2)cc1` [Compound of formula (72)], the MIC in assay [1] (setting [3]) and in assay [2] (setting [4]) was above 120 µg/mL in each case.

Regarding `CCCCCCCCCCCCOc1ccc(CN(C)CCCC)cc1` [Compound of formula (73)], the MIC is 120 µg/mL in assay [1] (setting [3]) and above 120 µg/mL in assay [2] (setting [4]).

With `CCCCCCCCCCCCOc1ccc(CN2CCCCCC2)cc1` [Compound of formula (74)], the MIC in assay [1] (setting [3]) was 3.75 µg/mL; in assay [2] (setting [4]), above 120 µg/mL.

Turning to `CCCCCCCCCCCCOc1ccc(CN(C(C)C)C(C)C)cc1` [Compound of formula (75)], the MIC in assay [1] (setting [3]) and in assay [2] (setting [4]) was above 120 µg/mL in each case.

For the compound `CCCCCCCCCCCCOc1ccc(CN2CCN(C)CC2)cc1` [Compound of formula (76)], the MIC in assay [1] (setting [3]) was 7.5 µg/mL; in assay [2] (setting [4]), above 120 µg/mL.

Consider `CCCCCCCCCCCCOc1ccc(CN(C)CC)cc1` [Compound of formula (77)], for which the MIC in assay [1] (setting [3]) is 15 µg/mL; in assay [2] (setting [4]), above 120 µg/mL.

As for `CCCCCCCCCCCCOc1ccc(CN2CCN(C(C)=O)CC2)cc1` [Compound of formula (78)], the MIC in assay [1] (setting [3]) and in assay [2] (setting [4]) was above 120 µg/mL in each case.

Consider `CCCCCCCCCCCCOc1ccc(CN(C)Cc2ccccc2)cc1` [Compound of formula (79)], for which the MIC in assay [1] (setting [3]) was 60 µg/mL; in assay [2] (setting [4]), above 120 µg/mL.

Take `CCCCCCCCCCCCOc1ccc(CN(C)CCCCCC)cc1` [Compound of formula (80)]: the MIC in assay [1] (setting [3]) is 60 µg/mL; in assay [2] (setting [4]), above 120 µg/mL.

For `CCCCCCCCCCCCOc1ccc(CN2CCN(CC)CC2)cc1` [Compound of formula (81)], the MIC is 15 µg/mL in assay [1] (setting [3]) and above 120 µg/mL in assay [2] (setting [4]).

As to `CCCCCCCCCCCCOc1ccc(CN2CCCC2)cc1` [Compound of formula (82)], the “MIC [μg/ml] SH” value in assay [1] (Staphylococcus hominis DSM 20328, CASO broth, 48 hours at 37° C., MIC = ≦20% growth (optical density at 620 nm), listed as (82)) amounted to 7.5 µg/mL. Also, in assay [2] (setting [4]), the MIC is 60 µg/mL.

On to `CCCCCCCCCCCCOc1ccc(CN2CCCC2)cc1` [Compound of formula (83)], for which the “MIC [μg/ml] SH” value in assay [1] (Staphylococcus hominis DSM 20328, CASO broth, 48 hours at 37° C., MIC = ≦20% growth (optical density at 620 nm), listed as (83)) is above 120 µg/mL. Moreover, the “MIC [μg/ml] EC” value in assay [2] (setting [4]) is above 120 µg/mL.

`CCCCCCCCCCCCOc1ccc(CN(C)C)cc1` [Compound of formula (84)]: the MIC in assay [1] (setting [3]) was 7.5 µg/mL; in assay [2] (setting [4]) it was 60 µg/mL.

For the compound `CCCCCCCCCCCCOc1ccc(CN2CCNCC2)cc1` [Compound of formula (85)], the MIC in assay [1] (setting [3]) and in assay [2] (setting [4]) was above 120 µg/mL each time.

For `CCCCCCCCCCCCOc1ccc(CN2CCCCC2)cc1` [Compound of formula (86)], the figures for the MIC in assay [1] (setting [3]) and in assay [2] (setting [4]) were 7.5 µg/mL and above 120 µg/mL, respectively.

Turning to `CCCCCCOc1ccc(CN(C)CCc2ccccn2)cc1OCCCCCC` [Compound of formula (87)], the MIC was 30 µg/mL in assay [1] (setting [3]) and above 120 µg/mL in assay [2] (setting [4]).

Consider `CCCCCCOc1ccc(CN2CCOCC2)cc1OCCCCCC` [Compound of formula (88)], for which the MIC in assay [1] (setting [3]) and in assay [2] (setting [4]) was above 120 µg/mL each time.

Turning to `CCCCCCOc1ccc(CN(C)CCCC)cc1OCCCCCC` [Compound of formula (89)], the MIC is 60 µg/mL in assay [1] (setting [3]) and above 120 µg/mL in assay [2] (setting [4]).

Take `CCCCCCOc1ccc(CN2CCCCCC2)cc1OCCCCCC` [Compound of formula (90)]: the MIC in assay [1] (setting [3]) is 7.5 µg/mL; in assay [2] (setting [4]), above 120 µg/mL.

With `CCCCCCOc1ccc(CN(C(C)C)C(C)C)cc1OCCCCCC` [Compound of formula (91)], the MIC in assay [1] (setting [3]) and in assay [2] (setting [4]) was above 120 µg/mL in each case.

Consider `CCCCCCOc1ccc(CN2CCN(C)CC2)cc1OCCCCCC` [Compound of formula (92)], for which the MIC in assay [1] (setting [3]) was found to be 15 µg/mL; in assay [2] (setting [4]) it was 60 µg/mL.

`CCCCCCOc1ccc(CN(CC)CC)cc1OCCCCCC` [Compound of formula (93)]: the MIC in assay [1] (setting [3]) was found to be 7.5 µg/mL; in assay [2] (setting [4]), 120 µg/mL.

With `CCCCCCOc1ccc(CN2CCN(C(C)=O)CC2)cc1OCCCCCC` [Compound of formula (94)], the MIC in assay [1] (setting [3]) and in assay [2] (setting [4]) was above 120 µg/mL each time.

For `CCCCCCOc1ccc(CN(C)Cc2ccccc2)cc1OCCCCCC` [Compound of formula (95)], the MIC in assay [1] (setting [3]) and in assay [2] (setting [4]) was above 120 µg/mL throughout.

As for `CCCCCCOc1ccc(CN(C)CCCCCC)cc1OCCCCCC` [Compound of formula (96)], the MIC was 120 µg/mL in assay [1] (setting [3]) and above 120 µg/mL in assay [2] (setting [4]).

As to `CCCCCCOc1ccc(CN2CCN(CC)CC2)cc1OCCCCCC` [Compound of formula (97)], the MIC in assay [1] (setting [3]) was 30 µg/mL; in assay [2] (setting [4]), 120 µg/mL.

As to `CCCCCCOc1ccc(CN2CCCC2)cc1OCCCCCC` [Compound of formula (98)], the MIC in assay [1] (setting [3]) amounted to 3.75 µg/mL; in assay [2] (setting [4]), 7.5 µg/mL.

`CCCCCCCCCCCCN(C)Cc1ccc(OCCCCCC)c(OCCCCCC)c1` [Compound of formula (99)]: the MIC in assay [1] (setting [3]) and in assay [2] (setting [4]) was above 120 µg/mL throughout.

`CCCCCCOc1ccc(CN(C)C)cc1OCCCCCC` [Compound of formula (100)]: the MIC in assay [1] (setting [3]) and in assay [2] (setting [4]) was 7.5 µg/mL each time.

Take `CCCCCCOc1ccc(CN2CCNCC2)cc1OCCCCCC` [Compound of formula (101)]: the MIC in assay [1] (setting [3]) and in assay [2] (setting [4]) was above 120 µg/mL each time.

Regarding `CCCCCCOc1ccc(CN2CCCCC2)cc1OCCCCCC` [Compound of formula (102)], the figures for the MIC in assay [1] (setting [3]) and in assay [2] (setting [4]) were 7.5 µg/mL and above 120 µg/mL, respectively.

The values are drawn from US20040006061A1, “Alkoxybenzylamine” (priority 2001, published 2004).
